Numbered stars: 1 amine (or outer) side, 2 acyl side, 3 side chain; on linkers, the order of the positions; unused ones are H or OH. Bridge positions count the residues as written; N and C are the ends. Square brackets hold non-standard residues; d marks the D form. Peptide text beside a SMILES is read from it. * marks the point of attachment. hTyr(3S-OH,4S-OH,3'-OSO3H) = N[C@H](C(=O)O)[C@H](O)[C@@H](O)c1ccc(O)c(OS(=O)(=O)O)c1; Orn(4R-OH,5R-OH) = O=C([C@H](C[C@@H](O)[C@@H](O)N[*:3])N[*:1])[*:2]; Pro(3S-OH,4S-Me) = C[C@H]1CN[C@H](C(=O)O)[C@H]1O; X1 = CCCCCOc1ccc(-c2cc(-c3ccc(C(=O)*)cc3)no2)cc1; Gln(3R-OH) = NC(=O)C[C@@H](O)[C@H](N)C(=O)O; Hyp = O=C(O)[C@@H]1C[C@@H](O)CN1
Tests used:
C. albicans [1] = assay: Growth inhibition by PM-cement or hydroxyapatite (HA) infiltrated with micafungin or anidulafungin (FIG. 2); type: cell-based, Candida albicans
Description: FIG. 2 is a graph showing comparisons of micafungin (MIC) and anidulafungin (ANA) infiltrated in hydrozyapatite (HA) or polymethylmethacrylate (PM)-cement and their inhibitory activity against C. albicans.
Both PM-cement and hydroxyapatite (HA) infiltrated with either micafungin or anidulafungin were evaluated. […] The results again indicated the superiority of micafungin (especially the longevity or diffusion of the drug) regardless of whether the drug was infiltrated in HA or PM cement.

C. albicans [2] = assay: Agar diffusion: zone of growth inhibition around PM-cement discs impregnated with antifungal; type: cell-based; settings: for duration of activity / inhibitory activity compared with voriconazole: PM cement discs; for duration of activity: days of incubation; for inhibitory activity compared with voriconazole: in words; for time up to which anti-candida activity was detected: cement discs, post-incubation
Description: The echinocandin antifungal micafungin or the triazole voriconazole were mixed with polymethylmethacrylate and a bone cement was formed using the mixture. C. albicans was grown overnight in T-soy broth, washed in buffer, then 1000 C. albicans yeast cells were added to the agar surface of a medium containing RPMI, MOPS, and 2% glucose, which was prepared by adding the latter to autoclaved agar after the agar had cooled for 15 min. Cement discs containing micafungin (100 mg) or voriconazole (400 mg) were prepared as described below. Each cement-antifungal disc was placed on the agar culture medium containing the organism.
The antifungal-cement mix (Smartset HV®, bone cement, DePuy (Warsaw, Ind.)) was prepared as follows under sterile conditions: the polymethylmethacrylate (PM) cement powder (part 1) was first mixed thoroughly with each drug and, then 18.88 g of bone cement liquid (part 2) was added to the mixture. Discs of cement-drug were prepared quickly before the cement hardened. Each cement disc (14 mm) was then placed in the center of inoculated agar cultures in 60 mm petri dishes. The plates were then incubated at 30° C. and zones of inhibition were measured every 24 hrs until activity was not observed (usually 6 days). The same discs were removed daily and placed on fresh agar medium that was inoculated similarly.
At 24 hrs, cement discs containing the antifungal micafungin were about 2.5-fold greater in activity that voriconazole. Further, the activity of micafungin was still detected at 120 hrs post-incubation, while no activity was detected after 24 hrs with voriconazole. Data were plotted as mm growth inhibition versus days of incubation (Table 1). The plates were digitally photographed using image processing software.

Compound	in vitro anti-Candida albicans activity, comparison (C. albicans [1]; HA or PM cement, in words)	persistence of activity (C. albicans [1]; drug infiltrated in HA or PM cement)	duration of activity (C. albicans [2])	inhibitory activity compared with voriconazole (C. albicans [2])	inhibitory activity compared with voriconazole (C. albicans [2]; listed as Micafungin)	activity of cement discs relative to voriconazole discs (C. albicans [2]; at 24 hrs, micafungin 100 mg vs voriconazole 400 mg discs)	time up to which anti-candida activity was detected (C. albicans [2])	duration of activity (C. albicans [2]; listed as voriconzole)
CCCCCOc1ccc(-c2cc(-c3ccc(C(=O)N[C@H]4C[C@@H](O)[C@@H](O)NC(=O)[C@@H]5[C@@H](O)[C@@H](C)CN5C(=O)[C@H]([C@H](O)CC(N)=O)NC(=O)[C@H]([C@H](O)[C@@H](O)c5ccc(O)c(OS(=O)(=O)O)c5)NC(=O)[C@@H]5C[C@@H](O)CN5C(=O)[C@H]([C@@H](C)O)NC4=O)cc3)no2)cc1 [micafungin] (X1-[Orn(4R-OH,5R-OH)]T[Hyp][hTyr(3S-OH,4S-OH,3'-OSO3H)][Gln(3R-OH)][Pro(3S-OH,4S-Me)]; lactam 1-C)	significantly greater than that of voriconazole and anidulafungin	6 to 7 days	≥ 6 days	much greater	superior and longer lasting	about 2.5 fold	≥ 120 h	–
C[C@@H](c1ncncc1F)[C@](O)(Cn1cncn1)c1ccc(F)cc1F [voriconazole]	–	–	1 days	–	–	–	≤ 24 h	≤ 1 days

Reference: patent US20110071072A1, “Antifungal Bone Cements” (Georgetown University, A Congressionally Chartered …, priority 2009, published 2011)
